{"source": "paper PMC4527344", "about": "(Tetrahedron letters, 2015)", "key": {"M. tuberculosis": {"test_system": "M. tuberculosis", "assay": "metabolomics: intramycobacterial accumulation and metabolism", "type": "cell-based, Mycobacterium tuberculosis", "settings": "dose-dependent"}, "[1]": {"settings": "Middlebrook 7H9 media supplemented with albumin, dextrose, and saline"}, "M. tuberculosis H37Rv [2]": {"test_system": "M. tuberculosis H37Rv", "type": "cell-based, Mycobacterium tuberculosis"}, "M. tuberculosis H37Rv [3]": {"test_system": "M. tuberculosis H37Rv", "settings": "cited from earlier work"}, "[4]": {"biological_target": "enoyl acyl-carrier protein reductase (InhA)", "settings": "InhA enzymatic activity; cited from earlier work"}}, "note": "Like-named read-outs stand apart in the source and are kept apart here."}
{"molecule": "CCOC(=O)CSc1nc(N)c2c3c(sc2n1)CC(C(C)(C)C)CC3", "note": "(stereo not drawn) [CD117]", "values": [{"measurement": "permeation of the M. tuberculosis cell wall", "setting": "M. tuberculosis", "result": "permeate the M. tuberculosis cell wall"}, {"measurement": "stability in growth media", "setting": "[1]", "result": "stable"}, {"measurement": "MIC", "setting": "M. tuberculosis H37Rv [2]", "result": 0.39, "unit": "mg/L"}, {"measurement": "MIC", "setting": "M. tuberculosis H37Rv [3]; M. tuberculosis H37Rv lab strain, previously reported", "result": 0.39, "unit": "mg/L"}, {"measurement": "MIC", "setting": "M. tuberculosis H37Rv [3]; M. tuberculosis H37Rv, 0.39 μg/mL expressed in μM", "result": 1.0, "unit": "µM"}, {"measurement": "IC50", "setting": "[4]", "result": "34 ± 6", "unit": "µM"}]}
